Assay results reported in ChEMBL document CHEMBL3877316, “Synthesis of pharmacologically important naphthoquinones and anticancer activity of 2-benzyllawsone through DNA topoisomerase-II inhibition” (Bioorg Med Chem, 2017).

What was measured:
Format in all cases: organism-based
Conditions in all cases: in vivo, 168 h
Mus musculus [1] = assay: Acute toxicity in Swiss albino mouse assessed as serum creatinine level at 1000 mg/kg, po qd administered as single dose for 7 days (reference value: 0.09 +/- 0.01 mg/dl)
Mus musculus [2] = assay: Acute toxicity in Swiss albino mouse assessed as serum SGOT level at 1000 mg/kg, po qd administered as single dose for 7 days (reference value: 34.32 +/- 3.78 U/L)
Mus musculus [3] = assay: Acute toxicity in Swiss albino mouse assessed as changes in relative weight of spleen up to 1000 mg/kg, po qd administered as single dose for 7 days
Mus musculus [4] = assay: Acute toxicity in Swiss albino mouse assessed as serum SGPT level at 1000 mg/kg, po qd administered as single dose for 7 days (reference value: 23.06 +/- 1.92 U/L)
Mus musculus [5] = assay: Acute toxicity in Swiss albino mouse assessed as serum protein level at 300 mg/kg, po qd administered as single dose for 7 days (reference value: 2.91 +/- 0.31 mg/ml)
Mus musculus [6] = assay: Acute toxicity in Swiss albino mouse assessed as body weight at 5 mg/kg, po qd administered as single dose for 7 days (reference value: 27.73 +/- 0.94 g)

O=C1C=C(OCc2ccccc2)C(=O)c2ccccc21
Activity (Mus musculus [1]): 0.16 mg/dL | Activity (Mus musculus [2]): 31.68 U/L | Activity (Mus musculus [3]): Non-Toxic | Activity (Mus musculus [4]): 25 U/L | Activity (Mus musculus [5]): 2.43 mg/mL | Activity (Mus musculus [6]): 26.34 g
